Assay results published in patent US20100254942A1, “HEPATITIS C ANTIVIRAL COMPOSITIONS AND METHODS” (BIOTRON LIMITED, priority 2007, published 2010).
Several values for one entry are separate records, joined by “and”; a condition that tells them apart may be missing. Equal values may be shown once. Read-outs that look alike come from different tables or passages of the source.

What was measured:
[1] = target: T1, HCV p7 ion channel protein (Hepatitis C virus genotype 1a, UniProt P27958); experiment: Bacterial bioassay: growth of E. coli expressing HCV p7; type: cell-based; set-up: scale not given here; settings: cumulative averaged scores; result above zero indicates potential anti-viral activity
T1 construct: codons were optimised for expression of the p7 protein in E. coli; expressed in transfected cells; host or cells: E. coli carrying plasmid pPLp7 (pPL451 backbone, temperature-inducible)
From the text: The bacterial bioassay method used in the present example to test the anti-viral activity of the compounds against different viral targets was described in detail in PCT/2004/000866, incorporated in its entirety herein by reference. This assay is used in conjunction with the GBV-B and BVDV assays described below, to ensure that all active compounds are identified, some of which are active in one or the other of the assays, while some compounds may be active in both assays.
Briefly, the bacterial bio-assay for screening potential anti-HCV compounds is based on the HCV p7 ion channel protein. p7 is a small membrane protein encoded by HCV, which has a functional activity supporting viral growth and/or replication.
The p7-encoding synthetic cDNA fragment cDp7.coli, in which codons were optimised for expression of the p7 protein in E. coli, was cloned into the expression plasmid pPL451, creating the vector pPLp7, in which p7 expression is temperature inducible, as described in detail in PCT/2004/000866. Inhibition of the growth of E. coli cells expressing p7 at 37° C. was observed as an indicator of p7 ion channel function dissipating the normal Na+gradient maintained by the bacterial cells. Halos of growth around a particular compound application site indicate that the compound has inhibited expression of the p7 ion channel activity that prevents growth in the absence of the compound.
The positive controls were used in this assay to ensure that the assay was working rather than for comparison of relative activities of the compounds.

[2] = system: bovine viral diarrhea virus (BVDV) strain NADL; experiment: BVDV CPE-inhibition assay in MDBK cells; type: cell-based
Procedure: The antiviral evaluation of selected BIT compounds against BVDV was outsourced to Southern Research Institute (SRI), Fredrick Md. USA. A simple cytoprotection format is used in which the antiviral efficacy of the compounds is assessed by their ability to reduce the cytopathic effect of BVDV infection in Madin-Darby bovine kidney cells (Buckwold et al., 2003)
(§1) A virus-induced cytopathogenic effects (CPE)-inhibition assay procedure was employed to evaluate compounds for antiviral activity against bovine viral diarrhea virus (BVDV) strain NADL, in Madin-Darby bovine kidney (MDBK) cells passaged in T-75 flasks (1, 2). Antiviral assays were designed to test six half-log concentrations of each compound in triplicate against the challenge virus. Cell controls (CC) containing medium alone, virus-infected cell controls (VC) containing medium and virus, drug cytotoxicity controls containing medium and each drug concentration, reagent controls containing culture medium only (no cells), and drug colorimetric controls containing drug and medium (no cells) are run simultaneously with the test samples. Human interferon-α 2b was used as a positive control compound. On the day preceding the assay, the cells were trypsinized, pelleted, counted and resuspended at 1×10^4/well in tissue culture medium in 96-well flat bottom tissue culture plates in a volume of 100 μl per well. One day following plating of cells, the wells were washed and the medium was replaced with complete medium (2% serum) containing various concentrations of test compound diluted in medium in a half-log series. A pre-titered aliquot of virus was removed from the freezer (−80° C.) just before each experiment. The virus was diluted into tissue culture medium such that the amount of virus added to each well would give complete cell killing at 6-7 days post-infection. The plates were incubated at 37° C. in a humidified atmosphere containing 5% CO2 until maximum CPE is observed in the untreated virus control cultures (˜day 7) Inhibition of CPE by the compound was determined using Cell Titer 96 (Promega). A colorimetric method for determining the number of viable cells was used. A computer program was utilized to calculate the percent of CPE reduction of the virus-infected wells and the percentage cell viability of uninfected drug control wells. […] A therapeutic (selectivity) index (TI50) for each active compound was determined by dividing the TC50 by the IC50.
(§2) Drug cytotoxicity was measured separately in uninfected cells. Eleven BIT compounds were tested in the first experiment in which the compounds were added to the cells just prior to infection and were maintained throughout the entire experiment. Two of them, BIT225 and BIT314 returned sub-micromolar IC50 values (see Table 2 below).

[3] = system: Madin-Darby bovine kidney (MDBK) cells; experiment: Drug cytotoxicity in uninfected MDBK cells; type: cell-based; settings: for TC50: uninfected MDBK cells
From the text: as §1, §2

GBV-B p13 ion channel = target: T2, GBV-B p13 ion channel (Hepatitis GB virus B, UniProt Q69422); settings: synthetic peptide of two C-terminal transmembrane helices of p13; Premkumar et al., 2006; cited from earlier work
T2 construct: a synthetic peptide corresponding to the two C-terminal transmembrane helices of p13 (which share the greatest homology to p7); host or cells: chemically synthesised peptide

[4] = Bovine viral diarrhea virus isolates and strains, MDBK, Table 2a, read-out: BVDV IC50
[5] = BVDV in MDBK cells, compound added just prior to infection and maintained, N/A = not achieved, read-out: IC50
[6] = Bovine viral diarrhea virus isolates and strains, MDBK, nucleoside analog tested individually against BVDV, read-out: EC50

T1 sequence (P27958 747-809): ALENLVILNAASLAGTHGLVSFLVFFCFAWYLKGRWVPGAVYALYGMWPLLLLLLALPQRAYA
T2 sequence (Q69422 670-732): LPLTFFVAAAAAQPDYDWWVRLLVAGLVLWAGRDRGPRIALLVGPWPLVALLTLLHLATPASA

Compound	Average Bacterial Assay Score HCV p7 [1]	IC50 [2, 4] [µM]	further results
COc1ccc(-c2cccc3cc(C(=O)NC(=N)N)ccc23)c(OC)n1 [BIT315, (5-(2,6-dimethoxypryridin-3-yl)-2-napthoyl)guanidine]	0.20	> 20	
COc1cc2ccccc2cc1C(=O)NC(=N)N [BIT302, (3-methoxy-2-napthoyl)guanidine]	0.76	7.21	
N=C(N)NC(=O)/C=C/c1cccc2c1CCC2 [BIT222, 3(indan-4-yl)-propenoylguanidine]	2.0		
COc1ccc2cc(C(=O)NC(=N)N)ccc2c1Br [BIT223, 5-bromo-6-methoxy-2-napthoylguanidine]	0.5		IC50 [2, 5]: 4.38 µM; TC50 [3]: >30.0 µM
N=C(N)NC(=O)c1ccc2c(-c3ccsc3)cccc2c1 [BIT224, 5-thiophen-3-yl-2-naphthoylguanidine]	1.10		
CC(=O)O.Cn1cc(-c2ccc3cc(C(=O)NC(=N)N)ccc3c2)cn1 [BIT314, (6-(1-methylpryazol-4-yl)-2-napthoyl)guanidinium acetate]	4.03	0.39	IC50 [2, 5]: 0.21 µM; EC50 ([2]; Bovine viral diarrhea virus isolates and strains, MDBK, drug alone, average of experiments, read-out: average EC50): 0.3 µM; EC50 ([2]; Bovine viral diarrhea virus isolates and strains, MDBK, in the presence of 5 IU/ml IFNα plus 1.25 μg/ml ribavirin, read-out: EC50): 0.183 µM; EC50 ([2]; Bovine viral diarrhea virus isolates and strains, MDBK, in the presence of 40 IU/ml IFNα, read-out: EC50): ~0.06 µM; EC50 ([2]; drug alone, average of experiments, read-out: average EC50): 0.38 µM; EC50 ([2]; drug tested individually against BVDV, read-out: EC50): 0.21 µM and 0.39 µM and 0.54 µM; IC50 values (in words) ([2]; first experiment, Table 2): sub-micromolar; TC50 [3]: 11.6 µM
Cc1cccc2cc(C(=O)NC(=N)N)ccc12 [BIT218, 5-methyl-2-napthoylguanidine]	1.7		
CS(=O)(=O)Nc1ccc(-c2cccc3cc(C(=O)NC(=N)N)ccc23)cc1 [BIT319, (5-(4-((methylsulphonyl)amino)phenyl)-2-napthoyl)guanidine]	0.10	> 20	
N=C(N)NC(=O)c1ccc2c(-c3ccccc3)cccc2c1 [BIT307, (5-phenyl-2-napthoyl)guanidine]	0.46	1.99	
N=C(N)NC(=O)c1ccc2cc(-c3ccsc3)ccc2c1 [BIT305, (6-(3-thienyl)-2-napthoyl)guanidine]	0.08	> 20	
CC(=O)Nc1cccc(-c2cccc3cc(C(=O)NC(=N)N)ccc23)c1 [BIT318, (5-(3-(acetylamino)phenyl)-2-napthoyl)guanidine]	0.73	> 20	
NC12CC3CC(CC(C3)C1)C2 [amantadine]			effect on p13 ion channel (GBV-B p13 ion channel): blocked
CC(=O)Nc1ccc(-c2cccc3cc(C(=O)NC(=N)N)ccc23)cc1 [BIT317, (5-(4-(acetylamino)phenyl)-2-napthoyl)guanidine]	0.06	6.02	
N=C(N)NC(=O)c1ccc2c(-c3cccs3)cccc2c1 [BIT308, (5-(thien-2-yl)-2-napthoyl)guanidine]	0.55	8.73	
NC(N)=NC(=O)c1nc(Cl)c(N2CCCCCC2)nc1N [HMA]			effect on p13 ion channel (GBV-B p13 ion channel): does not inhibit
N=C(N)NC(=O)C=Cc1cccc(Br)c1 [BIT067, (3-Bromocinnamoyl)guanidine]	2.00		

Compound	Average Bacterial Assay Score HCV p7 [1]	IC50 [2, 4] [µM]	further results
N=C(N)NC(=O)/C=C/c1cccc(C(=O)c2ccccc2)c1 [BIT216, (3-benzoyl)cinnamoylguanidine]	1.3		
N=C(N)NC(=O)C=Cc1cc(Br)ccc1F [BIT124, 5-bromo-2-fluorocinnamoylguanidine]	2.70		TC59 [3]: 5.21 µM
Cc1ccc2cc(C(=O)NC(=N)N)ccc2c1 [BIT306, (6-methyl-2-napthoyl)guanidine]	0.07	14.5	
COc1cc(C(=O)NC(=N)N)c(OC)c2ccccc12 [BIT304, (1,4-dimethoxy--2-napthoyl)guanidine]	0.60	> 20	
N=C(N)NC(=O)c1ccc2c(C3CC3)cccc2c1 [BIT312, (5-cyclopropyl-2-napthoyl)guanidine]	1.00	8.63	
N=C(N)NC(=O)c1ccc2c(Cl)cccc2c1 [BIT313, (5-chloro-2-napthoyl)guanidine]	1.30	9.64	
C[C@@]1(O)[C@H](O)[C@@H](CO)O[C@H]1n1ccc(N)nc1=O [2′-C-methylcytidine, reference compound]			EC50 [2, 6]: 2.75 µM
N=C(N)NC(=O)/C=C/c1cccc2c1OCO2 [BIT217, 2,3-methylenedioxycinnamoyl guanidine]	1.0		
C[C@@]1(O)[C@H](O)[C@@H](CO)O[C@H]1n1cnc2c(N)ncnc21 [2′-C-methyladenosine, reference compound]			EC50 [2, 6]: 2.16 µM
IFN-α			inhibition ([2]; 5 IU/ml IFNα alone): ~8%; IC50 ([2]; BVDV in MDBK cells, positive control): 20.6 IU/mL; EC50 ([2]; drug tested individually against BVDV): 21.7 IU/ml; TC59 [3]: >500 IU/mL
COc1c(C(=O)NC(=N)N)ccc2ccccc12 [BIT301, (1-methoxy-2-napthoyl)guanidine]	0.25	> 20	
N=C(N)NC(=O)C=Cc1ccc(Cl)c(Cl)c1 [BIT300, 3,4-dichlorocinnamoyl guanidine]	1.12		TC59 [3]: 3.69 µM
N=C(N)NC(=O)c1ccc2c(-c3ccccc3Cl)cccc2c1 [BIT316, (5-(2-chlorophenyl)-2-napthoyl)guanidine]	0.37	> 20	
N=C(N)NC(=O)c1ccc2c(-c3ccoc3)cccc2c1 [BIT311, (5-(3-furyl)-2-napthoyl)guanidine]	0.81	2.96	
CC(C)Cn1cc(-c2cccc3cc(C(=O)NC(=N)N)ccc23)cn1 [BIT310, (5-(1-isobutyl-1H-pyrazol-4-yl)-2-napthoyl)guanidine]	0.36	> 20	
N=C(N)NC(=O)c1ccc2c(Br)cccc2c1 [BIT303, (5-bromo-2-napthoyl)guanidine]	0.62	13.6	
